Assay results: PubChem BioAssay AID274 (DTP/NCI, 2004)
Several values for one entry are separate records, joined by “and”; a condition that tells them apart may be missing. Equal values may be shown once. Toxic doses and inconclusive results are not listed.

System: BDF1 mice, Lewis lung carcinoma iv, survival T/C
Assay: NCI In Vivo Anticancer Drug Screen. Data for tumor model Lewis Lung Carcinoma (intravenous) in B6D2F1 (BDF1) mice
Details: endpoint: median survival time, higher = longer survival
Method: The antitumor activity of compounds was measured in mice bearing transplantable tumors. Survival or tumor size were measured and the results are expressed as the measurement made in the treated group (T) divided by the measurement made in the vehicle treated control group (C). The tumor model used in this assay is Lewis Lung Carcinoma (intravenous) in B6D2F1 (BDF1) mice

[1] = dose: 1.25 mg/kg/injection, schedule: Q01DX009 (ip), vehicle: saline with Tween-80
[2] = dose: 2.5 mg/kg/injection, schedule: Q01DX009 (ip), vehicle: saline with Tween-80
[3] = dose: 12.5 mg/kg/injection, schedule: Q01DX009 (ip), vehicle: saline with Tween-80
[4] = dose: 25.0 mg/kg/injection, schedule: Q01DX009 (ip), vehicle: saline with Tween-80
[5] = dose: 50.0 mg/kg/injection, schedule: Q01DX009 (ip), vehicle: saline with Tween-80
[6] = dose: 100.0 mg/kg/injection, schedule: Q01DX009 (ip), vehicle: saline with Tween-80
[7] = dose: 200.0 mg/kg/injection, schedule: Q01DX009 (ip), vehicle: saline with Tween-80
[8] = dose: 10.0 mg/kg/injection, schedule: Q01DX009 (ip), vehicle: saline with Tween-80
[9] = dose: 20.0 mg/kg/injection, schedule: Q01DX009 (ip), vehicle: saline with Tween-80
[10] = dose: 40.0 mg/kg/injection, schedule: Q01DX009 (ip), vehicle: saline with Tween-80
[11] = dose: 6.25 mg/kg/injection, schedule: Q01DX009 (ip), vehicle: saline with Tween-80

SMILES: CCN1/C(=C/C=C/C=C\C=C\c2sc3ccc4ccccc4c3[n+]2CC)Sc2ccc3ccccc3c21
- T/C (dose: 0.08 mg/kg/injection, schedule: Q01DX009 (ip), vehicle: saline with Tween-80): 101 % of control
- T/C (dose: 0.16 mg/kg/injection, schedule: Q01DX009 (ip), vehicle: saline with Tween-80): 104 % of control
- T/C (dose: 0.31 mg/kg/injection, schedule: Q01DX009 (ip), vehicle: saline with Tween-80): 98 % of control
- T/C (dose: 0.62 mg/kg/injection, schedule: Q01DX009 (ip), vehicle: saline with Tween-80): 104 % of control
- T/C [1]: 105 % of control
- T/C [2]: 105 % of control

SMILES: COC1/C=C/O[C@@]2(C)Oc3c(C)c(O)c4c(O)c(cc(O)c4c3C2=O)NC(=O)/C(C)=C\C=C\[C@H](C)C(O)[C@@H](C)[C@@H](O)[C@@H](C)[C@H](OC(C)=O)[C@@H]1C (stereo partly drawn)
- T/C [3]: 102 % of control
- T/C [4]: 101 % of control
- T/C [5]: 103 % of control
- T/C [6]: 107 % of control
- T/C [7]: 102 % of control
- T/C (dose: 400.0 mg/kg/injection, schedule: Q01DX009 (ip), vehicle: saline with Tween-80): 111 % of control

SMILES: O=C1C=CC(=O)N1c1ccc(Cl)cc1
- T/C (dose: 1.25 mg/kg/injection, schedule: Q01DX009 (ip), vehicle: Klucel (hydroxypropylcellulose) (HPC)): 100 % of control
- T/C (dose: 2.5 mg/kg/injection, schedule: Q01DX009 (ip), vehicle: Klucel (hydroxypropylcellulose) (HPC)): 95 % of control
- T/C (dose: 5.0 mg/kg/injection, schedule: Q01DX009 (ip), vehicle: Klucel (hydroxypropylcellulose) (HPC)): 96 % of control
- T/C (dose: 10.0 mg/kg/injection, schedule: Q01DX009 (ip), vehicle: Klucel (hydroxypropylcellulose) (HPC)): 107 % of control

SMILES: CCN1C[C@]2(COC)[C@H](O)C[C@H](OC)[C@]34C1[C@H]([C@H](OC)[C@H]23)[C@]1(OC(C)=O)[C@H]2[C@@H](OC(=O)c3ccccc3)[C@](O)(C[C@H]24)[C@@H](OC)[C@@H]1O
- T/C (dose: 0.03 mg/kg/injection, schedule: Q01DX009 (ip), vehicle: Klucel (hydroxypropylcellulose) (HPC)): 108 % of control
- T/C (dose: 0.06 mg/kg/injection, schedule: Q01DX009 (ip), vehicle: Klucel (hydroxypropylcellulose) (HPC)): 107 % of control
- T/C (dose: 0.13 mg/kg/injection, schedule: Q01DX009 (ip), vehicle: Klucel (hydroxypropylcellulose) (HPC)): 99 % of control

SMILES: CN(C)c1nc(N(C)C)nc(N(C)C)n1
- T/C [5]: 99 % of control
- T/C (dose: 59.0 mg/kg/injection, schedule: Q04DX003 (ip), vehicle: saline): 102 % of control
- T/C (dose: 88.0 mg/kg/injection, schedule: Q04DX003 (ip), vehicle: saline): 97 % of control
- T/C [6]: 154 % of control
- T/C (dose: 133.0 mg/kg/injection, schedule: Q04DX003 (ip), vehicle: Klucel (hydroxypropylcellulose) (HPC)): 90 % of control
- T/C (dose: 133.0 mg/kg/injection, schedule: Q04DX003 (ip), vehicle: saline): 101 % of control and 109 % of control
- T/C [7]: 92 % of control
- T/C (dose: 200.0 mg/kg/injection, schedule: Q04DX003 (ip), vehicle: Klucel (hydroxypropylcellulose) (HPC)): 114 % of control
- T/C (dose: 200.0 mg/kg/injection, schedule: Q04DX003 (ip), vehicle: saline): 96 % of control and 105 % of control
- T/C (dose: 300.0 mg/kg/injection, schedule: Q04DX003 (ip), vehicle: saline): 95 % of control and 105 % of control
- T/C (dose: 450.0 mg/kg/injection, schedule: Q04DX003 (ip), vehicle: saline): 104 % of control
- T/C (dose: 675.0 mg/kg/injection, schedule: Q04DX003 (ip), vehicle: saline): 105 % of control

SMILES: CNC=O
- T/C (dose: 100.0 mg/kg/injection, schedule: Q01DX009 (ip), vehicle: saline sonified): 106 % of control
- T/C (dose: 200.0 mg/kg/injection, schedule: Q01DX009 (ip), vehicle: saline sonified): 114 % of control
- T/C (dose: 400.0 mg/kg/injection, schedule: Q01DX009 (ip), vehicle: saline sonified): 115 % of control

SMILES: Nc1nc(=S)c2ncn(C3OC(COC(=O)c4ccc(Cl)cc4)C(OC(=O)c4ccc(Cl)cc4)C3OC(=O)c3ccc(Cl)cc3)c2[nH]1 (stereo not drawn)
- T/C (dose: 18.75 mg/kg/injection, schedule: Q01DX009 (ip), vehicle: Klucel (hydroxypropylcellulose) (HPC)): 103 % of control
- T/C (dose: 37.5 mg/kg/injection, schedule: Q01DX009 (ip), vehicle: Klucel (hydroxypropylcellulose) (HPC)): 106 % of control
- T/C (dose: 150.0 mg/kg/injection, schedule: Q01DX009 (ip), vehicle: Klucel (hydroxypropylcellulose) (HPC)): 89 % of control

SMILES: C=C(C)C(=O)OCC1CO1 (stereo not drawn)
- T/C (dose: 50.0 mg/kg/injection, schedule: Q01DX009 (ip), vehicle: Klucel (hydroxypropylcellulose) (HPC)): 88 % of control
- T/C (dose: 100.0 mg/kg/injection, schedule: Q01DX009 (ip), vehicle: Klucel (hydroxypropylcellulose) (HPC)): 105 % of control

SMILES: COc1ccc(-c2c(C)c(C(=O)O)nc(-c3ccc4c(O)c(OC)c5c(c4n3)=NC(C)(C)N=5)c2N)c(O)c1OC
- T/C [8]: 113 % of control
- T/C [9]: 103 % of control
- T/C [10]: 98 % of control

SMILES: C[CH2][Ge]([CH2]C)[CH2]C.C[CH2][Ge]([CH2]C)[CH2]C.C[CH2][Ge]([CH2]C)[O][Ge]([CH2]C)[CH2]C
- T/C [11]: 97 % of control
- T/C [3]: 96 % of control
- T/C [4]: 103 % of control
- T/C [5]: 100 % of control

SMILES: CC(C)n1cc2c(N)ncnc2n1
- T/C (dose: 25.0 mg/kg/injection, schedule: Q01DX009 (ip), vehicle: saline): 107 % of control
- T/C (dose: 50.0 mg/kg/injection, schedule: Q01DX009 (ip), vehicle: saline): 112 % of control
- T/C (dose: 100.0 mg/kg/injection, schedule: Q01DX009 (ip), vehicle: saline): 117 % of control

SMILES: C[CH2][Sn]([CH2]C)([O]S(C)(=O)=O)[O]S(C)(=O)=O
- T/C (dose: 0.78 mg/kg/injection, schedule: Q01DX009 (ip), vehicle: saline): 98 % of control
- T/C (dose: 1.56 mg/kg/injection, schedule: Q01DX009 (ip), vehicle: saline): 105 % of control
- T/C (dose: 3.12 mg/kg/injection, schedule: Q01DX009 (ip), vehicle: saline): 93 % of control
- T/C (dose: 6.25 mg/kg/injection, schedule: Q01DX009 (ip), vehicle: saline): 92 % of control
- T/C (dose: 12.5 mg/kg/injection, schedule: Q01DX009 (ip), vehicle: saline): 93 % of control

SMILES: CC1OC(=O)C(C(C)C)NC(=O)C(C(C)C)OC(=O)C(C(C)C)NC(=O)C(C)OC(=O)C(C(C)C)NC(=O)C(C(C)C)OC(=O)C(C(C)C)NC(=O)C(C)OC(=O)C(C(C)C)NC(=O)C(C(C)C)OC(=O)C(C(C)C)NC1=O (stereo not drawn)
- T/C [1]: 94 % of control
- T/C [2]: 102 % of control
- T/C (dose: 5.0 mg/kg/injection, schedule: Q01DX009 (ip), vehicle: saline with Tween-80): 98 % of control
- T/C [8]: 102 % of control
- T/C [9]: 89 % of control
- T/C [10]: 89 % of control

SMILES: CC[C@](C)(O)C(=O)O[C@H]1C(=O)O[C@@H]2C[C@H]3C(C)=CC(=O)[C@@H](O)[C@]3(C)[C@H]3[C@@]4(O)OC[C@]32[C@@H]1[C@@H](C)[C@H]4O
- T/C (dose: 0.12 mg/kg/injection, schedule: Q01DX009 (ip), vehicle: steriod suspending solution): 92 % of control
- T/C (dose: 0.25 mg/kg/injection, schedule: Q01DX009 (ip), vehicle: steriod suspending solution): 106 % of control
- T/C (dose: 0.5 mg/kg/injection, schedule: Q01DX009 (ip), vehicle: steriod suspending solution): 99 % of control

SMILES: CC(=O)c1c(O)c(C)c(O)c2c1OC1=CC(=O)C(C(C)=O)C(=O)C12C (stereo not drawn)
- T/C (dose: 50.0 mg/kg/injection, schedule: Q01DX009 (ip), vehicle: gum acacia): 89 % of control

SMILES: Cc1ccc2c(c1)N=C(Nc1ccccc1)N=S2(C)=O (stereo not drawn)
- T/C [11]: 102 % of control
- T/C [3]: 102 % of control
- T/C [4]: 111 % of control
- T/C [5]: 112 % of control
- T/C [6]: 115 % of control
- T/C [7]: 116 % of control

SMILES: COc1cc2oc(=O)ccc2cc1[C@@H]1OC(=O)C2(C)O[C@@H]12 (stereo partly drawn)
- T/C (dose: 0.31 mg/kg/injection, schedule: Q01DX009 (ip), vehicle: water): 96 % of control
- T/C (dose: 0.62 mg/kg/injection, schedule: Q01DX009 (ip), vehicle: water): 104 % of control
- T/C (dose: 1.25 mg/kg/injection, schedule: Q01DX009 (ip), vehicle: water): 101 % of control
- T/C (dose: 2.5 mg/kg/injection, schedule: Q01DX009 (ip), vehicle: water): 101 % of control
- T/C (dose: 5.0 mg/kg/injection, schedule: Q01DX009 (ip), vehicle: water): 100 % of control

SMILES: COc1cc2ccnc(/C=N\NC(N)=S)c2cc1OC
- T/C [4]: 101 % of control
- T/C [5]: 97 % of control
- T/C [6]: 92 % of control
- T/C [7]: 103 % of control

SMILES: CS(=O)(=O)OCCCNCCCOS(C)(=O)=O
- T/C (dose: 5.0 mg/kg/injection, schedule: Q01DX009 (ip), vehicle: saline): 96 % of control
- T/C (dose: 10.0 mg/kg/injection, schedule: Q01DX009 (ip), vehicle: saline): 106 % of control and 114 % of control
- T/C (dose: 20.0 mg/kg/injection, schedule: Q01DX009 (ip), vehicle: saline): 108 % of control
- T/C (dose: 40.0 mg/kg/injection, schedule: Q01DX009 (ip), vehicle: saline): 113 % of control
